Measurements taken from US9758520B2, “Substituted fused heterocycles as GPR119 modulators for the treatment of diabetes, obesity, dyslipidemia and related disorders” (SANOFI, priority 2014, dated 2017).

What follows are compounds tested against T1, human GPR119 (Homo sapiens, UniProt Q8TDV5) (assay: Functional cellular assay measuring GPR119-mediated cAMP release (HTRF) in HEK-293 cells stably expressing recombinant GPR119). Details: cAMP response, cell line expressing human GPR119 (HEK-293), 30 minutes at room temperature.
T1 construct: expressed in transfected cells
T1 sequence (Q8TDV5 1-335): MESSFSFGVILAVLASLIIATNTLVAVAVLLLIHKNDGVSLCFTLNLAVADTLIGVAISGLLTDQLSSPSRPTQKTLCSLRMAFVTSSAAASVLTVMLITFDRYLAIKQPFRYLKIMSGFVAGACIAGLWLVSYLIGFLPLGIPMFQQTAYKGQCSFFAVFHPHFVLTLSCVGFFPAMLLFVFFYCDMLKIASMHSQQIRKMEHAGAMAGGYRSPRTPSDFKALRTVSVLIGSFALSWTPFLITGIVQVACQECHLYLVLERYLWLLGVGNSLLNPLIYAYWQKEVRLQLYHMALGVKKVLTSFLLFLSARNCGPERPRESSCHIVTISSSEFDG
Type: cell-based
Procedure: Functional Cellular Assays Measuring GPR119-Mediated cAMP Release
Compounds of the invention, which are agonists of GPR119, were characterized by functional assays measuring the cAMP response of HEK-293 cell lines stably expressing recombinant GPR119 from man, mouse or rat, or by using a hamster cell line HIT-T15 expressing GPR119 endogenously. The cAMP content was determined using a kit based on homogenous time-resolved fluorescence (HTRF) from Cisbio Corp. (cat. no. 62AM4PEC). For preparation, cells were split into T175 culture flasks and grown to near confluency in medium (DMEM/10% FCS for HEK-293 cells, and F-12K medium/10% horse serum/2.5% FCS for HIT-T15 cells, respectively). Medium was then removed and cells washed with PBS lacking calcium and magnesium ions, followed by proteinase treatment with accutase (Sigma-Aldrich, cat. no. A6964). Detached cells were washed and resuspended in assay buffer (1×HBSS; 20 mM HEPES, 0.1% BSA, 2 mM IBMX) and cellular density determined. They were then diluted to 400000 cells/mL and 25 μL-aliquots dispensed to the wells of 96-well plates. For measurement, 25 μL of test compound in assay buffer was added and incubated for 30 minutes at room temperature. After addition of HTRF reagents diluted in lysis buffer, the plates were incubated for 1 hour, followed by measuring the fluorescence ratio at 665 vs. 620 nm. Potency of the agonists was quantified by determining the concentrations that caused 50% of the maximal response/activation (EC50). See Table 3 for exemplary data obtained using the cell line expressing human GPR119.

Row | EC50 [nM] | Compound
1 | 11300 | O=C1[C@H](Oc2ccc(OCC3CC3)nc2)CCN1c1ccc2nc(C3CC3)nn2c1 [Example 1-01, (3R)-3-[[6-(Cyclopropylmethoxy)-3-pyridyl]oxy]-1-(2-cyclopropyl-[1,2,4]triazolo[1,5-a]pyridin-6-yl)pyrrolidin-2-one]
2 | 851 | O=C1[C@H](Oc2ccc(OCC3CC3)nc2)CCN1c1ccc2ncnn2c1 [Example 1-02, (3R)-3-[[6-(cyclopropylmethoxy)-3-pyridyl]oxy]-1-([1,2,4]triazolo[1,5-a]pyridin-6-yl)pyrrolidin-2-one]
3 | 7620 | O=C1[C@H](Oc2ccc(OCC3CC3)nc2)CCN1c1ccc2nccn2c1 [Example 1-03, (3R)-3-[[6-(cyclopropylmethoxy)-3-pyridyl]oxy]-1-imidazo[1,2-a]pyridin-6-yl-pyrrolidin-2-one]
4 | 155 | COC(=O)Cn1c(C)c2ccc(N3CC[C@@H](Oc4ccc(OCC5CC5)nc4)C3=O)cn2c1=O [Example 1-04, methyl 2-[6-[(3R)-3-[[6-(cyclopropylmethoxy)-3-pyridyl]oxy]-2-oxo-pyrrolidin-1-yl]-1-methyl-3-oxo-imidazo[1,5-a]pyridin-2-yl]acetate]
5 | 7990 | O=C1[C@H](Oc2ccc(OCC3CC3)nc2)CCN1c1ccc2nncn2c1 [Example 1-05, (3R)-3-[[6-(cyclopropylmethoxy)-3-pyridyl]oxy]-1-([1,2,4]triazolo[4,3-a]pyridin-6-yl)pyrrolidin-2-one]
6 | 17300 | O=C(O)Cc1nc2ccc(N3CC[C@@H](Oc4ccc(OCC5CC5)nc4)C3=O)cn2n1 [Example 1-06, 2-[6-[(3R)-3-[[6-(cyclopropylmethoxy)-3-pyridyl]oxy]-2-oxo-pyrrolidin-1-yl]-[1,2,4]triazolo[1,5-a]pyridin-2-yl]acetic acid]
7 | 1580 | COC(=O)Cc1nc2ccc(N3CC[C@@H](Oc4ccc(OCC5CC5)nc4)C3=O)cn2n1 [Example 1-07, methyl 2-[6-[(3R)-3-[[6-(cyclopropylmethoxy)-3-pyridyl]oxy]-2-oxo-pyrrolidin-1-yl]-[1,2,4]triazolo[1,5-a]pyridin-2-yl]acetate]
8 | 5540 | COC(=O)c1nc2ccc(N3CC[C@@H](Oc4ccc(OCC5CC5)nc4)C3=O)cn2n1 [Example 1-08, methyl 6-[(3R)-3-[[6-(cyclopropylmethoxy)-3-pyridyl]oxy]-2-oxo-pyrrolidin-1-yl]-[1,2,4]triazolo[1,5-a]pyridine-2-carboxylate]
9 | 191 | CN(C)C(=O)Cn1nc2ccc(N3CC[C@@H](Oc4ccc(OCC5CC5)nc4)C3=O)cn2c1=O [Example 1-09, 2-[6-[(3R)-3-[[6-(cyclopropylmethoxy)-3-pyridyl]oxy]-2-oxo-pyrrolidin-1-yl]-3-oxo-[1,2,4]triazolo[4,3-a]pyridin-2-yl]-N,N-dimethyl-acetamide]
10 | 658 | O=C1[C@H](Oc2ccc(Oc3ccc(F)cc3)nc2)CCN1c1cc(F)c2n[nH]c(=O)n2c1 [Example 1-10, 8-fluoro-6-[(3R)-3-[[6-(4-fluorophenoxy)-3-pyridyl]oxy]-2-oxo-pyrrolidin-1-yl]-2H-[1,2,4]triazolo[4,3-a]pyridin-3-one]
11 | 206 | CN(C)C(=O)Cn1nc2ccc(N3CC[C@@H](Oc4ccc(Oc5ccc(F)cc5)nc4)C3=O)cn2c1=O [Example 1-11, 2-[6-[(3R)-3-[[6-(4-fluorophenoxy)-3-pyridyl]oxy]-2-oxo-pyrrolidin-1-yl]-3-oxo-[1,2,4]triazolo[4,3-a]pyridin-2-yl]-N,N-dimethyl-acetamide]
12 | 269 | CN(C)C(=O)Cn1nc2ccc(N3CC[C@@H](Oc4ccc(C(=O)CC5CC5)cc4)C3=O)cn2c1=O [Example 1-12, 2-[6-[(3R)-3-[4-(2-cyclopropylacetyl)phenoxy]-2-oxo-pyrrolidin-1-yl]-3-oxo-[1,2,4]triazolo[4,3-a]pyridin-2-yl]-N,N-dimethyl-acetamide]
13 | 179 | CN(C)C(=O)Cn1nc2c(F)cc(N3CC[C@@H](Oc4ccc(C(=O)CC5CC5)cc4)C3=O)cn2c1=O [Example 1-13, 2-[6-[(3R)-3-[4-(2-cyclopropylacetyl)phenoxy]-2-oxo-pyrrolidin-1-yl]-8-fluoro-3-oxo-[1,2,4]triazolo[4,3-a]pyridin-2-yl]-N,N-dimethyl-acetamide]
14 | 701 | O=C1[C@H](Oc2ccc(OCC3CC3)nc2)CCN1c1ccc2n[nH]c(=O)n2c1 [Example 1-14, 6-[(3R)-3-[[6-(cyclopropylmethoxy)-3-pyridyl]oxy]-2-oxo-pyrrolidin-1-yl]-2H-[1,2,4]triazolo[4,3-a]pyridin-3-one]
15 | 924 | COC(=O)Cn1cc2ccc(N3CC[C@@H](Oc4ccc(OCC5CC5)nc4)C3=O)cc2n1 [Example 1-15, methyl 2-[6-[(3R)-3-[[6-(cyclopropylmethoxy)-3-pyridyl]oxy]-2-oxo-pyrrolidin-1-yl]indazol-2-yl]acetate]
16 | 12000 | O=C(O)Cn1cc2ccc(N3CC[C@@H](Oc4ccc(OCC5CC5)nc4)C3=O)cc2n1 [Example 1-16, 2-[6-[(3R)-3-[[6-(cyclopropylmethoxy)-3-pyridyl]oxy]-2-oxo-pyrrolidin-1-yl]indazol-2-yl]acetic acid]
17 | 2110 | O=C(O)Cn1nc2ccc(N3CC[C@@H](Oc4ccc(OCC5CC5)nc4)C3=O)cc2n1 [Example 1-17, 2-[5-[(3R)-3-[[6-(cyclopropylmethoxy)-3-pyridyl]oxy]-2-oxo-pyrrolidin-1-yl]benzotriazol-2-yl]acetic acid]
18 | 34 | COC(=O)Cn1nc2ccc(N3CC[C@@H](Oc4ccc(OCC5CC5)nc4)C3=O)cc2n1 [Example 1-18, methyl 2-[5-[(3R)-3-[[6-(cyclopropylmethoxy)-3-pyridyl]oxy]-2-oxo-pyrrolidin-1-yl]benzotriazol-2-yl]acetate]
19 | > 100000 | O=C(O)Cc1cn2cc(N3CC[C@@H](Oc4ccc(OCC5CC5)nc4)C3=O)ccc2n1 [Example 1-19, 2-[6-[(3R)-3-[[6-(cyclopropylmethoxy)-3-pyridyl]oxy]-2-oxo-pyrrolidin-1-yl]imidazo[1,2-a]pyridin-2-yl]acetic acid]
20 | 9920 | COC(=O)Cc1cn2cc(N3CC[C@@H](Oc4ccc(OCC5CC5)nc4)C3=O)ccc2n1 [Example 1-20, methyl 2-[6-[(3R)-3-[[6-(cyclopropylmethoxy)-3-pyridyl]oxy]-2-oxo-pyrrolidin-1-yl]imidazo[1,2-a]pyridin-2-yl]acetate]
21 | 2050 | Cn1nc2ccc(N3CC[C@@H](Oc4ccc(OCC5CC5)nc4)C3=O)cc2n1 [Example 1-21, (3R)-3-[[6-(cyclopropylmethoxy)-3-pyridyl]oxy]-1-(2-methylbenzotriazol-5-yl)pyrrolidin-2-one]
22 | 182 | CN(C)C(=O)Cn1nc2cc(N3CC[C@@H](Oc4ccc(OCC5CC5)nc4)C3=O)cc(F)c2n1 [Example 1-22, 2-[6-[(3R)-3-[[6-(cyclopropylmethoxy)-3-pyridyl]oxy]-2-oxo-pyrrolidin-1-yl]-4-fluorobenzotriazol-2-yl]-N,N-dimethyl-acetamide]
23 | 4200 | Cn1nc2ccc(N3CC[C@@H](Oc4ccc(OCC5CC5)nc4)C3=O)cn2c1=O [Example 1-23, 6-[(3R)-3-[[6-(cyclopropylmethoxy)-3-pyridyl]oxy]-2-oxo-pyrrolidin-1-yl]-2-methyl-[1,2,4]triazolo[4,3-a]pyridin-3-one]
24 | 6170 | O=C(O)Cn1nc2ccc(N3CC[C@@H](Oc4ccc(OCC5CC5)nc4)C3=O)cn2c1=O [Example 1-24, 2-[6-[(3R)-3-[[6-(cyclopropylmethoxy)-3-pyridyl]oxy]-2-oxo-pyrrolidin-1-yl]-3-oxo-[1,2,4]triazolo[4,3-a]pyridin-2-yl]acetic acid]
25 | 249 | O=C1[C@H](Oc2ccc(OCC3CC3)nc2)CCN1c1cc(F)c2n[nH]c(=O)n2c1 [Example 1-25, 6-[(3R)-3-[[6-(cyclopropylmethoxy)-3-pyridyl]oxy]-2-oxo-pyrrolidin-1-yl]-8-fluoro-2H-[1,2,4]triazolo[4,3-a]pyridin-3-one]
26 | 113 | COC(=O)Cn1nc2ccc(N3CC[C@@H](Oc4ccc(OCC5CC5)nc4)C3=O)cn2c1=O [Example 1-26, methyl 2-[6-[(3R)-3-[[6-(cyclopropylmethoxy)-3-pyridyl]oxy]-2-oxo-pyrrolidin-1-yl]-3-oxo-[1,2,4]triazolo[4,3-a]pyridin-2-yl]acetate]
27 | 1870 | Cn1nc2c(F)cc(N3CC[C@@H](Oc4ccc(OCC5CC5)nc4)C3=O)cn2c1=O [Example 1-27, 6-[(3R)-3-[[6-(cyclopropylmethoxy)-3-pyridyl]oxy]-2-oxo-pyrrolidin-1-yl]-8-fluoro-2-methyl-[1,2,4]triazolo[4,3-a]pyridin-3-one]
